Source: ChEMBL document CHEMBL3632524, “3-(2,6-Dichloro-benzyloxy)-11-oxo-olean-12-ene-29-oic acid, a semisynthetic derivative of glycyrrhetic acid: synthesis, antiproliferative, apoptotic and anti-angiogenesis activity” (Medchemcomm, 2015)
Calls of active or inactive are those of the source. The calls are words filed in the database; no cut-off is given here.

Tests used:
PC-3 [1] = assay: Antiproliferative activity against human PC3 cells assessed as cell viability after 6 hrs by MTT assay; type: functional, cell-based; conditions: PC-3, 6 h
PC-3 [2] = assay: Cell cycle arrest in human PC3 cells assessed as accumulation at sub G1 phase at 20 uM after 24 hrs by propidium iodide based flow cytometry (reference value: 3%); type: functional
MIA PaCa-2 = assay: Antiproliferative activity against human MIAPaCa2 cells assessed as cell viability by MTT assay; type: functional, cell-based; conditions: TDE = time-dependent effect
PC-3 [3] = assay: Antiproliferative activity against human PC3 cells assessed as cell viability after 24 hrs by MTT assay; type: functional, cell-based; conditions: PC-3, 24 h
PC-3 [4] = assay: Cell cycle arrest in human PC3 cells assessed as accumulation at G2 phase at 10 uM after 24 hrs by propidium iodide based flow cytometry (reference value: 20%); type: functional
PC-3 [5] = assay: Cell cycle arrest in human PC3 cells assessed as accumulation at G1 phase at 5 uM after 24 hrs by propidium iodide based flow cytometry (reference value: 50%); type: functional
PC-3 [6] = assay: Disruption of mitochondrial membrane potential in human PC3 cells at 20 uM after 24 hrs by rhodamine-123 based fluorescence assay (reference value: 5%); type: functional
PC-3 [7] = assay: Cell cycle arrest in human PC3 cells assessed as accumulation at S phase at 20 uM after 24 hrs by propidium iodide based flow cytometry (reference value: 30%); type: functional
PC-3 [8] = assay: Disruption of mitochondrial membrane potential in human PC3 cells at 10 uM after 24 hrs by rhodamine-123 based fluorescence assay (reference value: 5%); type: functional
PC-3 [9] = assay: Induction of apoptosis in human PC3 cells assessed as decrease in Bcl2 to Bax ratio at 5 to 20 uM after 24 hrs by western blot analysis (reference value: 5); type: functional
PC-3 [10] = assay: Cell cycle arrest in human PC3 cells assessed as accumulation at sub G1 phase after 24 hrs by propidium iodide based flow cytometry; type: functional
PC-3 [11] = assay: Antiangiogenic activity in human PC3 cells assessed as VEGF-induced migration at 5 to 30 uM after 24 hrs by wound healing assay; type: functional, cell-based
PC-3 [12] = assay: Cell cycle arrest in human PC3 cells assessed as accumulation at G2 phase at 5 uM after 24 hrs by propidium iodide based flow cytometry (reference value: 20%); type: functional
PC-3 [13] = assay: Cell cycle arrest in human PC3 cells assessed as accumulation at G1 phase at 10 uM after 24 hrs by propidium iodide based flow cytometry (reference value: 50%); type: functional
[14] = Antiproliferative activity against human MIAPaCa2 cells assessed as cell viability after 48 hrs by MTT assay; type: functional, cell-based; conditions: MIA PaCa-2, 48 h
HUVEC [15] = assay: Antiangiogenic activity in HUVEC assessed as VEGF-induced migration after 24 hrs by wound healing assay; type: functional, cell-based; conditions: Homo sapiens
PC-3 [16] = assay: Cell cycle arrest in human PC3 cells assessed as accumulation at sub G1 phase at 10 uM after 24 hrs by propidium iodide based flow cytometry (reference value: 3%); type: functional
PC-3 [17] = assay: Cell cycle arrest in human PC3 cells assessed as accumulation at sub G1 phase at 5 uM after 24 hrs by propidium iodide based flow cytometry (reference value: 3%); type: functional
HepG2 = assay: Antiproliferative activity against human HepG2 cells assessed as cell viability after 48 hrs by MTT assay; type: functional, cell-based; conditions: HepG2, 48 h
PC-3 [18] = assay: Cell cycle arrest in human PC3 cells assessed as accumulation at S phase at 10 uM after 24 hrs by propidium iodide based flow cytometry (reference value: 30%); type: functional
PC-3 [19] = assay: Cell cycle arrest in human PC3 cells assessed as accumulation at S phase after 24 hrs by propidium iodide based flow cytometry; type: functional
[20] = Up regulation of PARP-1 expression in human PC3 cells at 5 to 20 uM after 24 hrs by western blot analysis; type: functional, cell-based; conditions: PC-3
PC-3 [21] = assay: Down regulation of procaspase-8 expression in human PC3 cells at 5 to 20 uM after 24 hrs by western blot analysis; type: functional, cell-based
PC-3 [22] = assay: Antiproliferative activity against human PC3 cells assessed as cell viability after 12 hrs by MTT assay; type: functional, cell-based; conditions: PC-3, 12 h
PC-3 [23] = assay: Induction of apoptosis in human PC3 cells assessed as membrane blebbing after 24 hrs by fluorescence microscopic analysis; type: functional, cell-based
PC-3 [24] = assay: Cell cycle arrest in human PC3 cells assessed as accumulation at G1 phase at 20 uM after 24 hrs by propidium iodide based flow cytometry (reference value: 50%); type: functional
PC-3 [25] = assay: Induction of apoptosis in human PC3 cells assessed as translocation of Bax from cytosol to mitochondria at 5 to 20 uM after 24 hrs by western blot analysis; type: functional, cell-based
PC-3 [26] = assay: Induction of apoptosis in human PC3 cells assessed as apoptotic bodies after 24 hrs by fluorescence microscopic analysis; type: functional, cell-based
PC-3 [27] = assay: Cell cycle arrest in human PC3 cells assessed as accumulation at G2 phase at 20 uM after 24 hrs by propidium iodide based flow cytometry (reference value: 20%); type: functional
PC-3 [28] = assay: Antiproliferative activity against human PC3 cells assessed as cell viability after 48 hrs by MTT assay; type: functional, cell-based; conditions: PC-3, 48 h
PC-3 [29] = assay: Induction of apoptosis in human PC3 cells assessed as nuclear condensation after 24 hrs by fluorescence microscopic analysis; type: functional, cell-based
PC-3 [30] = assay: Cell cycle arrest in human PC3 cells assessed as accumulation at S phase at 5 uM after 24 hrs by propidium iodide based flow cytometry (reference value: 30%); type: functional
PC-3 [31] = assay: Down regulation of Bcl-2 in human PC3 cells at 10 to 20 uM after 24 hrs by western blot analysis; type: functional, cell-based
HUVEC [32] = assay: Antiangiogenic activity in HUVEC assessed as wound closure level at 20 uM after 24 hrs by wound healing assay (reference value: 100%); type: functional, Homo sapiens
PC-3 [33] = assay: Antiproliferative activity against human PC3 cells assessed as cell viability after 18 hrs by MTT assay; type: functional, cell-based; conditions: PC-3, 18 h
PC-3 [34] = assay: Disruption of mitochondrial membrane potential in human PC3 cells at 5 uM after 24 hrs by rhodamine-123 based fluorescence assay (reference value: 5%); type: functional

CC1(C)[C@@H](OCc2c(Cl)cccc2Cl)CC[C@]2(C)[C@H]3C(=O)C=C4[C@@H]5C[C@@](C)(C(=O)O)CC[C@]5(C)CC[C@@]4(C)[C@]3(C)CC[C@@H]12
IC50 (PC-3 [1]): 400 µM | Activity (PC-3 [2]): 37% | Activity (MIA PaCa-2): tde | IC50 (PC-3 [3]): 15 µM | Activity (PC-3 [4]): 7% | Activity (PC-3 [5]): 59% | Activity (PC-3 [6]): 38% | Activity (PC-3 [7]): 53% | Activity (PC-3 [8]): 15% | Ratio (PC-3 [9]): 0.5 | Activity (PC-3 [10]): Dose-dependent effect | Activity (PC-3 [11]): Dose-dependent effect | Activity (PC-3 [12]): 1% | Activity (PC-3 [13]): 51% | IC50 [14]: 7 µM | Activity (HUVEC [15]): Active | Activity (PC-3 [16]): 12% | Activity (PC-3 [17]): 8% | IC50 (HepG2): 19 µM | Activity (PC-3 [18]): 42% | Activity (PC-3 [19]): Dose-dependent effect | Activity [20]: Active | Activity (PC-3 [21]): Active | IC50 (PC-3 [22]): 370 µM | Activity (PC-3 [23]): Dose-dependent effect | Activity (PC-3 [24]): 44% | Activity (PC-3 [25]): Active | Activity (PC-3 [26]): Dose-dependent effect | Activity (PC-3 [27]): 4% | IC50 (PC-3 [28]): 6 µM | Activity (PC-3 [29]): Dose-dependent effect | Activity (PC-3 [30]): 40% | Activity (PC-3 [31]): Active | Activity (HUVEC [32]): 20% | IC50 (PC-3 [33]): 100 µM | Activity (PC-3 [34]): 12%
